# In ChEMBL document CHEMBL4507299, “Data for DCP probe PF-04554878” (2021):
# Activity calls are given as the source filed them. The calls are words filed in the database; no cut-off is given here.
# Experiments:
# [1] = biological target: Rhodopsin kinase GRK1 (Homo sapiens) (UniProt Q15835)
# [2] = biological target: Interferon-induced, double-stranded RNA-activated protein kinase (Homo sapiens) (UniProt P19525)
# [3] = biological target: Calcium/calmodulin-dependent protein kinase type II subunit delta (Homo sapiens) (UniProt Q13557)
# [4] = biological target: Testis-specific serine/threonine-protein kinase 1 (Homo sapiens) (UniProt Q9BXA7)
# [5] = biological target: Tyrosine-protein kinase ABL1 (Homo sapiens, UniProt P00519)
# [6] = biological target: RAC-alpha serine/threonine-protein kinase (Homo sapiens) (UniProt P31749)
# [7] = biological target: Activin receptor type-2B (Homo sapiens) (UniProt Q13705)
# [8] = biological target: TGF-beta receptor type-2 (Homo sapiens) (UniProt P37173)
# [9] = biological target: Ribosomal protein S6 kinase beta-1 (Homo sapiens) (UniProt P23443)
# [10] = biological target: Serine/threonine-protein kinase 38 (Homo sapiens) (UniProt Q15208)
# [11] = biological target: Protein kinase C iota type (Homo sapiens) (UniProt P41743)
# [12] = biological target: Ribosomal protein S6 kinase alpha-4 (Homo sapiens) (UniProt O75676)
# [13] = biological target: Ephrin type-B receptor 2 (Homo sapiens) (UniProt P29323)
# [14] = biological target: Cyclin-dependent kinase 2 (Homo sapiens) (UniProt P24941)
# [15] = biological target: Ribosomal protein S6 kinase alpha-2 (Homo sapiens) (UniProt Q15349)
# [16] = biological target: Tyrosine-protein kinase Fgr (Homo sapiens) (UniProt P09769)
# [17] = biological target: Cyclin-dependent kinase 13 (Homo sapiens) (UniProt Q14004)
# [18] = biological target: Cyclin-dependent kinase 14 (Homo sapiens) (UniProt O94921)
# [19] = biological target: Bone morphogenetic protein receptor type-1A (Homo sapiens) (UniProt P36894)
# [20] = biological target: Mitogen-activated protein kinase 4 (Homo sapiens) (UniProt P31152)
# [21] = biological target: Dual specificity protein kinase TTK (Homo sapiens) (UniProt P33981)
# [22] = biological target: Mast/stem cell growth factor receptor Kit (Homo sapiens) (UniProt P10721)
# [23] = biological target: Sigma intracellular receptor 2 (Homo sapiens, UniProt Q5BJF2); conditions: Compound concentration 10.0 uM
# [24] = biological target: Serine/threonine-protein kinase RIO1 (Homo sapiens) (UniProt Q9BRS2)
# [25] = biological target: Protein-tyrosine kinase 2-beta (Homo sapiens, UniProt Q14289); assay: Binding assay (PTK2B)
# [26] = biological target: Serine/threonine-protein kinase ICK (Homo sapiens) (UniProt Q9UPZ9)
# [27] = biological target: Phosphorylase b kinase regulatory subunit alpha, liver isoform (Homo sapiens) (UniProt P46019)
# [28] = biological target: High affinity nerve growth factor receptor (Homo sapiens) (UniProt P04629)
# [29] = system: Phosphatidylinositol 4,5-bisphosphate 3-kinase catalytic subunit alpha isoform (Homo sapiens), P42336 [H1047Y]
# [30] = biological target: Myosin light chain kinase, smooth muscle (Homo sapiens) (UniProt Q15746)
# [31] = biological target: Cyclin-dependent kinase 17 (Homo sapiens) (UniProt Q00537)
# [32] = biological target: Cyclin-dependent kinase 4 (Homo sapiens) (UniProt P11802)
# [33] = system: Tyrosine-protein kinase ABL1 (Homo sapiens), P00519 [H396P]
# [34] = biological target: Histamine H3 receptor (Homo sapiens) (UniProt Q9Y5N1); conditions: Compound concentration 10.0 uM
# [35] = biological target: Calcium/calmodulin-dependent protein kinase type II subunit alpha (Homo sapiens) (UniProt Q9UQM7)
# [36] = biological target: Inhibitor of nuclear factor kappa-B kinase subunit alpha (Homo sapiens) (UniProt O15111)
# [37] = biological target: Dual specificity testis-specific protein kinase 1 (Homo sapiens) (UniProt Q15569)
# [38] = biological target: Activin receptor type-2A (Homo sapiens) (UniProt P27037)
# [39] = system: Serine/threonine-protein kinase B-raf (Homo sapiens), P15056 [V600E]
# [40] = biological target: Mitogen-activated protein kinase kinase kinase 10 (Homo sapiens) (UniProt Q02779)
# [41] = biological target: Serine/threonine-protein kinase PLK1 (Homo sapiens) (UniProt P53350)
# [42] = Compound concentration 100.0 nM
# [43] = Compound concentration 1000.0 nM
# Sequence of Activin receptor type-2A (Homo sapiens) (P27037 whole entry): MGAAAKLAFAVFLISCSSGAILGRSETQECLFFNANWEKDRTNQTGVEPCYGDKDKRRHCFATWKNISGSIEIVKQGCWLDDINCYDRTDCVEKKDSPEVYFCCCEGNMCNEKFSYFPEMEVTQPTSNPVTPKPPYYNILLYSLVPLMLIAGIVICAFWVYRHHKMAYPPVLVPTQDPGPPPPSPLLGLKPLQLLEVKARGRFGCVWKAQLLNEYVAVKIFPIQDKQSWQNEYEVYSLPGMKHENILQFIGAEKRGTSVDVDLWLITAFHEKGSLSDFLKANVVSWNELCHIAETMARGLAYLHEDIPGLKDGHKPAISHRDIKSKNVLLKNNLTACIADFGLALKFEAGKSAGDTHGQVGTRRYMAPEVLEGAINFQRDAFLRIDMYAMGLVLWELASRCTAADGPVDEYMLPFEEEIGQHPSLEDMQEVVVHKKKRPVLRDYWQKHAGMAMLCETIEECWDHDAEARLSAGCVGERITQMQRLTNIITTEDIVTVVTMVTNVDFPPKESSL
# Sequence of Serine/threonine-protein kinase PLK1 (Homo sapiens) (P53350 whole entry): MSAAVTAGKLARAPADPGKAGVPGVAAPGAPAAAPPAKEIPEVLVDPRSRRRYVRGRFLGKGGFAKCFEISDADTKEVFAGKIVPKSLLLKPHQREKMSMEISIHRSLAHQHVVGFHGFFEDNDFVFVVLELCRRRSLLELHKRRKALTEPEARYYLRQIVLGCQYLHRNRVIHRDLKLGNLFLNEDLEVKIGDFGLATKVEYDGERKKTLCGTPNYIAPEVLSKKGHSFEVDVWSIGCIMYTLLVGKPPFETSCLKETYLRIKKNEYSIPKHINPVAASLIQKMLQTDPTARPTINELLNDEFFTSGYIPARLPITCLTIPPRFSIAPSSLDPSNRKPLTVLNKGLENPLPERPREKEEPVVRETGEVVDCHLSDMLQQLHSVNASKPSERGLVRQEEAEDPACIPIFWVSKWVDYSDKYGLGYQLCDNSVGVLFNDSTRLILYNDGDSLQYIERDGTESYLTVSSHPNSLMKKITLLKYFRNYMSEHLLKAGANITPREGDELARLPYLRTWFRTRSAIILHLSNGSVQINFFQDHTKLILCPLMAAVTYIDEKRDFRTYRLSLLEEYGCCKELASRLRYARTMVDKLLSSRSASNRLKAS
# Sequence of Serine/threonine-protein kinase B-raf (Homo sapiens), P15056 [V600E] (P15056 whole entry V600E): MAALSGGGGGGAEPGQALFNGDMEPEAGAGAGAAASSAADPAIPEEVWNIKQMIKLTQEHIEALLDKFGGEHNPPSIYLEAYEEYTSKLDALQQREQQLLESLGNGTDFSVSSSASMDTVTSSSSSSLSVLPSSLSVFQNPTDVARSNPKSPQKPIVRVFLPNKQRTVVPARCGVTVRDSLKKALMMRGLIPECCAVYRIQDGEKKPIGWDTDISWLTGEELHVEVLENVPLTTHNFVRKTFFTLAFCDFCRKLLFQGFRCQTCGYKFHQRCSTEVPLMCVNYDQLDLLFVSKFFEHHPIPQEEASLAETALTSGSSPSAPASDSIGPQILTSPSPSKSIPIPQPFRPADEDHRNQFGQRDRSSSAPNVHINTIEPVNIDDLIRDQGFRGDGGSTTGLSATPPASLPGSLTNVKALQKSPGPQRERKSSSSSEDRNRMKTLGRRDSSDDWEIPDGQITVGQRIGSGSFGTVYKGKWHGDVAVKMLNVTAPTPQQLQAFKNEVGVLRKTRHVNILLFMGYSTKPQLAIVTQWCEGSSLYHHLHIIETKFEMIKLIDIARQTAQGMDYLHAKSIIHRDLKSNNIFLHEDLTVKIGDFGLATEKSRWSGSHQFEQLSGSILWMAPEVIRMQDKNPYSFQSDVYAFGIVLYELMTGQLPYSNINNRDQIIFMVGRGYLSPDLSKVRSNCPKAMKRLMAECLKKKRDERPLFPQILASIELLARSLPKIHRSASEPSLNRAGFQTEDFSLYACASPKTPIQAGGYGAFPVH
# Sequence of Mitogen-activated protein kinase 4 (Homo sapiens) (P31152 whole entry): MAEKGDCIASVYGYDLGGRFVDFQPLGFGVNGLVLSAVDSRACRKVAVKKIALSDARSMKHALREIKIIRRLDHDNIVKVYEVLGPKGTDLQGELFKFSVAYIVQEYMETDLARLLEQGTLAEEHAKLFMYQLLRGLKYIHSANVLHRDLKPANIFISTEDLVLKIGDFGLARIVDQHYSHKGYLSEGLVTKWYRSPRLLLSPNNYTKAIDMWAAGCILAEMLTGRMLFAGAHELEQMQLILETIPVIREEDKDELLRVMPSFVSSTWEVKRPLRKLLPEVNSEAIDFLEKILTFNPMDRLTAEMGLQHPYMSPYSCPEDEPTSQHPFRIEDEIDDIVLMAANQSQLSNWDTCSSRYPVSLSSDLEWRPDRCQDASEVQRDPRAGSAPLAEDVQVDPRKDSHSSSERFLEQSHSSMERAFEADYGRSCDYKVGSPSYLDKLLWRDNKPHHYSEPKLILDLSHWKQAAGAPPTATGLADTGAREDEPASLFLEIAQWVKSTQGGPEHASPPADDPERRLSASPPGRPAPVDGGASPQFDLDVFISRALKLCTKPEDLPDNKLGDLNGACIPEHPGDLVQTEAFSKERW
# Sequence of Phosphorylase b kinase regulatory subunit alpha, liver isoform (Homo sapiens) (P46019 whole entry, canonical isoform): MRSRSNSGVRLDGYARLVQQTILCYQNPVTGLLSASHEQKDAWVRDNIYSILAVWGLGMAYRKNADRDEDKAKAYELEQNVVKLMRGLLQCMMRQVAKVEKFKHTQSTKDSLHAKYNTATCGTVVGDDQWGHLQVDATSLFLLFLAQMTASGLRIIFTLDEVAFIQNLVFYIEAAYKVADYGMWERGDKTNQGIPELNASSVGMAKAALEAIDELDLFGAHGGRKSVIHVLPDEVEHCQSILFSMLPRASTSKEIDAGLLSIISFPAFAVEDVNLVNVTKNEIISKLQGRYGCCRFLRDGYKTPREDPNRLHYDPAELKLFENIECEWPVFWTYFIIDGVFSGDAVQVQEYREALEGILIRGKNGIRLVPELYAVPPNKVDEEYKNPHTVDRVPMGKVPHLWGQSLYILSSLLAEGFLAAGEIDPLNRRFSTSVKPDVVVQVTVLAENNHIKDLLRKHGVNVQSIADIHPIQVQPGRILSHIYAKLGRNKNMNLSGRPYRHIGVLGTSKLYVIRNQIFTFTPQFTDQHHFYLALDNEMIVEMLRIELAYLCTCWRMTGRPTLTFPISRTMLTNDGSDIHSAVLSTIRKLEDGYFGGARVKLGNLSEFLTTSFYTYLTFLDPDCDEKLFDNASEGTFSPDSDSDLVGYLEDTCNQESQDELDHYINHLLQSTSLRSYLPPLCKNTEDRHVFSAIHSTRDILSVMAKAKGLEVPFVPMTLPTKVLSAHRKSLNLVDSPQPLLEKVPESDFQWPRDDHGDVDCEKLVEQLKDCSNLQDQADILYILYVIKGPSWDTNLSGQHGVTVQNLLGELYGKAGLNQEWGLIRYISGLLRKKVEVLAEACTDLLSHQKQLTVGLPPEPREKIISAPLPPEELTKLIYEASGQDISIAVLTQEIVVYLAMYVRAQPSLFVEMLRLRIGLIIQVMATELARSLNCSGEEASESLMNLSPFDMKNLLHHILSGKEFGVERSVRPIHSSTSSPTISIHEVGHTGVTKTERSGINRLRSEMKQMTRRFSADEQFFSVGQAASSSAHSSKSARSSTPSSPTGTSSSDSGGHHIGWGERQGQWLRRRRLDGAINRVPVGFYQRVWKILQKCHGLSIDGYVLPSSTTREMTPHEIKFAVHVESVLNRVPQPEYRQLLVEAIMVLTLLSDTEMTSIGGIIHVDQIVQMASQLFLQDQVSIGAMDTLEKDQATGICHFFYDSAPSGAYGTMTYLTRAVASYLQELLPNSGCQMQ
# Sequence of Serine/threonine-protein kinase 38 (Homo sapiens) (Q15208 2-465 limits assumed): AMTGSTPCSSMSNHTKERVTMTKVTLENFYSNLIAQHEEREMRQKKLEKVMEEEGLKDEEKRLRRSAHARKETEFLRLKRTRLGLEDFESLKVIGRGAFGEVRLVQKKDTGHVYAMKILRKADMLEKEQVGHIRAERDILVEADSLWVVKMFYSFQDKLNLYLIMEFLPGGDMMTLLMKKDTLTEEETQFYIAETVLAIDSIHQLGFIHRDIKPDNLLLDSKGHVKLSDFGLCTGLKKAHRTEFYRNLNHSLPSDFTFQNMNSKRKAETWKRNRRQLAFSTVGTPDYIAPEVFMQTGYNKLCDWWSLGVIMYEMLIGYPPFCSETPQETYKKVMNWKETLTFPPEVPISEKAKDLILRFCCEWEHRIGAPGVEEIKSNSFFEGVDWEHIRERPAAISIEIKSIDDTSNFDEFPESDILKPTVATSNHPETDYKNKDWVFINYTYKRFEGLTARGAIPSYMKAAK
# Sequence of Tyrosine-protein kinase Fgr (Homo sapiens) (P09769 2-529 limits assumed): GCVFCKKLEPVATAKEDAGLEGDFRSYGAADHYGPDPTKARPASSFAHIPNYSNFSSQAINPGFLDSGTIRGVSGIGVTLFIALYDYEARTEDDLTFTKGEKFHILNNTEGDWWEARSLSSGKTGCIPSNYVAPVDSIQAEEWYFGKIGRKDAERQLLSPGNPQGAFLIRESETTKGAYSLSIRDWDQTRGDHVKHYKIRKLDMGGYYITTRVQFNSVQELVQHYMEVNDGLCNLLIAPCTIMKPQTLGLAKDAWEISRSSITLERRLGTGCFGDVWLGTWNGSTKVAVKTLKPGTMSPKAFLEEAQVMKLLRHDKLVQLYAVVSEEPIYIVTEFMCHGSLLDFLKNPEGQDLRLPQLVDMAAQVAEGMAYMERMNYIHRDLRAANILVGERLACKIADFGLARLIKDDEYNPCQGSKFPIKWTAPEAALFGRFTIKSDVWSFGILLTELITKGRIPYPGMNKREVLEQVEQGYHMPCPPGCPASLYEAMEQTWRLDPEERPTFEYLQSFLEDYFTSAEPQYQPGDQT
# Sequence of Cyclin-dependent kinase 4 (Homo sapiens) (P11802 whole entry): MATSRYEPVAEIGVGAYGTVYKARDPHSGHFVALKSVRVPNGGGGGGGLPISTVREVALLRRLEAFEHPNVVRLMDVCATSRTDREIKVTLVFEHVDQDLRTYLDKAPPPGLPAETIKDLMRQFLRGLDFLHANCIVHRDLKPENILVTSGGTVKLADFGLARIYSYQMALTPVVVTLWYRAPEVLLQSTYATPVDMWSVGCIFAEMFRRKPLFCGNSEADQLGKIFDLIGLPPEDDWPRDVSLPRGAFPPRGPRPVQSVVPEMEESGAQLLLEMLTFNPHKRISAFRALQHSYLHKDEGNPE
structure (smiles),measurement,setting,value
CNC(=O)c1ccc(Nc2ncc(C(F)(F)F)c(NCc3nccnc3N(C)S(C)(=O)=O)n2)cc1 [DEFACTINIB],residual activity,[1]; [42],99%
same,residual activity,[2]; [42],100%
same,residual activity,[3]; [42],83%
same,residual activity,[4]; [42],64%
same,residual activity,[5]; [42],100%
same,residual activity,[6]; [42],100%
same,residual activity,[7]; [42],100%
same,residual activity,[8]; [42],100%
same,residual activity,[9]; [42],96%
same,residual activity,[10]; [42],86%
same,residual activity,[11]; [42],84%
same,residual activity,[12]; [42],85%
same,residual activity,[13]; [42],76%
same,residual activity,[14]; [42],97%
same,residual activity,[15]; [42],77%
same,residual activity,[16]; [42],81%
same,residual activity,[17]; [42],94%
same,residual activity,[18]; [42],88%
same,residual activity,[19]; [42],100%
same,residual activity,[20]; [42],87%
same,residual activity,[21]; [42],8.3%
same,residual activity,[22]; [42],84%
same,inhibition,[23],48.1%
same,residual activity,[24]; [42],100%
same,IC50,[25],0.0002 µM (active)
same,residual activity,[26]; [42],68%
same,residual activity,[27]; [42],75%
same,residual activity,[28]; [42],13%
same,residual activity,[29]; [42],100%
same,residual activity,[30]; [42],75%
same,residual activity,[31]; [42],88%
same,residual activity,[32]; [42],100%
same,residual activity,[33]; [42],100%
same,inhibition,[34],-7.94%
same,residual activity,[35]; [42],83%
same,residual activity,[36]; [42],98%
same,residual activity,[37]; [42],96%
same,residual activity,[38]; [42],90%
same,residual activity,[39]; [42],100%
same,residual activity,[40]; [42],68%
same,residual activity,[41]; [42],84%
CN(c1ccnc(CNc2nc(Nc3ccc4c(c3)CC(=O)N4)ncc2C(F)(F)F)n1)S(C)(=O)=O [PF-00911705],residual activity,[1]; [43],74%
same,residual activity,[2]; [43],82%
same,residual activity,[3]; [43],100%
same,residual activity,[4]; [43],56%
same,residual activity,[5]; [43],40%
same,residual activity,[6]; [43],100%
same,residual activity,[7]; [43],73%
same,residual activity,[8]; [43],100%
same,residual activity,[9]; [43],50%
same,residual activity,[10]; [43],65%
same,residual activity,[11]; [43],55%
same,residual activity,[12]; [43],81%
same,residual activity,[13]; [43],81%
same,residual activity,[14]; [43],89%
same,residual activity,[15]; [43],57%
same,residual activity,[16]; [43],58%
same,residual activity,[17]; [43],82%
same,residual activity,[18]; [43],86%
same,residual activity,[19]; [43],89%
same,residual activity,[20]; [43],57%
same,residual activity,[21]; [43],13%
same,residual activity,[22]; [43],85%
same,inhibition,[23],60.3%
same,residual activity,[24]; [43],9.7%
same,IC50,[25],0.721 µM (not active)
same,residual activity,[26]; [43],100%
same,residual activity,[27]; [43],63%
same,residual activity,[28]; [43],10%
same,residual activity,[29]; [43],85%
same,residual activity,[30]; [43],71%
same,residual activity,[31]; [43],85%
same,residual activity,[32]; [43],93%
same,residual activity,[33]; [43],46%
same,inhibition,[34],12.9%
same,residual activity,[35]; [43],67%
same,residual activity,[36]; [43],57%
same,residual activity,[37]; [43],97%
same,residual activity,[38]; [43],100%
same,residual activity,[39]; [43],68%
same,residual activity,[40]; [43],49%
same,residual activity,[41]; [43],7.6%
